In patent US20250002460A1, “SORTILIN INHIBITORS” (SORTINA PHARMA AB, priority 2021, published 2025):

How the values were obtained:
[1] = target: T1, human sortilin (sSORT) (Homo sapiens, UniProt Q99523); test: Neurotensin competitive fluorescence polarization binding assay (FPA); conditions: mean IC50 values for sortilin inhibitors, IC50 (nM), 100 nM sSORT, 10 nM Neurotensin-Ahx-FITC, 1 h room temperature
T1 sequence (Q99523 78-756 limits assumed): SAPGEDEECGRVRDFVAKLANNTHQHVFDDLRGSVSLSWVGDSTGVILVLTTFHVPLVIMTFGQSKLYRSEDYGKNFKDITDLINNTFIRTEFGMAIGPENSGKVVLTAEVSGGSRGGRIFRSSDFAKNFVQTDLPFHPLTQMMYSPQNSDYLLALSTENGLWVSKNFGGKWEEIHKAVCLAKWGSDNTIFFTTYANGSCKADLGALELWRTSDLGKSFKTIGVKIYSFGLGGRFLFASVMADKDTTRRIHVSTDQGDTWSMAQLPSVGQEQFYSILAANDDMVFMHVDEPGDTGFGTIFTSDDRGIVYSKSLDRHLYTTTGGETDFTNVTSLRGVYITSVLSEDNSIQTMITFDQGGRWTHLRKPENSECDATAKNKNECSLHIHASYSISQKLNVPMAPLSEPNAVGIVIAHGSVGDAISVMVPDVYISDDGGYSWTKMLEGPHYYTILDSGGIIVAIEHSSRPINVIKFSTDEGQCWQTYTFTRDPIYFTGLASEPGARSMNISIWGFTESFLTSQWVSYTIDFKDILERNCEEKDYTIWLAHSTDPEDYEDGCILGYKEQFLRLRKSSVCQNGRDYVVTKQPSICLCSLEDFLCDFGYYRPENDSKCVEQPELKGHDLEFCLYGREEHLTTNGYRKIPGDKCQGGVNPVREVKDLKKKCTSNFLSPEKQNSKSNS
Procedure: Fresh 0.1% bovine serum albumin (BSA) was added to the assay buffer to obtain the final concentration: 50 mM HEPES, pH 7.4; 100 mM NaCl; 2.0 mM CaCl2; 0.1% BSA; 0.1% TWEEN® 20. The sortilin inhibitors of the invention and reference compounds (see Table 1) analyzed in the screen and neurotensin (used as an assay control) were serially diluted in ten different concentrations in assay buffer. In each well of a Nunc® MaxiSorp™ 384-well plate (Sigma Aldrich), 100 nM sSORT was mixed with pre-diluted sortilin inhibitors and 10 nM Neurotensin-Ahx-FITC in assay buffer adjusted to contain 1% DMSO in a final volume of 20 μl. The plate was then briefly centrifuged prior to 1 h incubation at room temperature in the dark.

[2] = tested on: MDA-MB-231 breast cancer cell line; test: Secondary sphere formation assay in MDA-MB-231; assay type: cell-based; conditions: 48 hours; for baseline sphere formation, compound used alone: MDA-MB-231, without progranulin; for progranulin induced secondary sphere formation: MDA-MB-231, in combination with 500 nM progranulin
Procedure: (§1) C-terminal Progranulin (progranulin) (Casio, peptide sequence: […], SEQ ID NO: 5) were reconstituted in sterile PBS upon delivery, aliquoted and stored at −20° C. Working stock concentrations were achieved by dilution in culture media. […] 5% CO2 and 21% O2 before performing the primary followed by secondary sphere formation assay.
(§2) The sphere formation assay was performed as described previously (Mammary Gland Biol Neoplasia, 2012, 17(2): 111-117). Briefly, single cell suspensions were obtained following treatment with respective sortilin inhibitors SI1, SI5, SI8, SI25, SI32, SI39, SI51 and SI62 of the invention and seeded in phenol red-free DMEM/F-12 (Gibco®, Life Technologies), supplemented with 1% B27 supplement (Fisher Scientific, Invitrogen), 1% P/S and 20 ng/ml EGF (BD Biosciences) onto non-adherent polyhema-coated plates. After cultivation for five days, single cell suspensions were obtained from the primary spheres and seeded again in phenol red-free DMEM/F-12 supplemented with 1% B27 supplement, 1% P/S and 20 ng/ml EGF onto non-adherent polyhema-coated plates for 5-7 days. Subsequently, spheres greater than 50 μm in diameter were counted manually in the microscope.

[3] = tested on: colon cancer cell line HT-29; test: Sphere formation assay in HT-29; assay type: cell-based; conditions: HT-29, FIG. 5
Procedure: as §1, §2

[4] = tested on: MDA-MB-231 xenograft; test: MDA-MB-231 xenograft in vivo model, metastasis assessment; parameters: species or system NOD SCID gamma mice; conditions: compared to vehicle control; RC3 5-50 μg/day/mouse in drinking water for 21 days
Procedure: Luciferase tagged MDA-MB-231 cells were injected at a concentration of 0.2×10^6 cells subcutaneously into two sites of the flank of NOD SCID gamma mice (Taconic, Denmark). Cells were prepared in a 60% mixture of matrigel (growth factor reduced, BD Bioscience) and 40% complete media. The size of the tumors were determined by calliper measurement of the subcutaneous tumor mass two times per week and tumor volume was calculated according to the formula volume=(length×(width)^2/2). Assessments of metastasis were performed using the IVIS® whole body imager (PerkinElmer) based on luciferase expression from stably transfected cell lines.

[5] = tested on: melanoma cell line SK-MEL-30; test: Sphere formation assay in SK-MEL-30; assay type: cell-based; conditions: SK-MEL-30, FIG. 6
Procedure: as §1, §2

Row | Structure (SMILES) | IC50 [1] | baseline sphere formation, compound used alone [2] | progranulin induced secondary sphere formation [2] | colon cancer cell sphere formation [3] | lung metastasis / metastasis formation [4] | melanoma cancer cell sphere formation [5]
1 | CC(C)(C)/C=C/C(NC(=O)c1ccc(-c2cccs2)cc1)C(=O)O (centres unmarked) [SI51, (E)-5,5-dimethyl-2-[p-(2-thienyl)benzoylamino]-3-hexenoic acid] | 80 nM | reduced baseline sphere formation | – | – | – | –
2 | CC(C)(C)/C=C/C(NC(=O)c1cccc(-n2ccnc2)c1)C(=O)O (centres unmarked) [SI25, (E)-5,5-dimethyl-2[m-(1-imidazolyl)benzoylamino]-3-hexenoic acid] | 31 nM | reduced baseline sphere formation | – | – | – | –
3 | Cc1nc(N(C)C)ncc1C(=O)NC(/C=C/C(C)(C)C)C(=O)O (racemic) [SI1, (E)-2-[2-(dimethylamino)-4-methyl-5-pyrimidinylcarbonylamino]-5,5-dimethyl-3-hexenoic acid] | 59 nM | reduced baseline sphere formation | reduced sphere formation | – | – | –
4 | CC(C)(C)/C=C/C(NC(=O)c1cc(Cl)cs1)C(=O)O (centres unmarked) [SI32, (E)-2-(4-chloro-2-thienylcarbonylamino)-5,5-dimethyl-3-hexenoic acid] | 52 nM | reduced baseline sphere formation | – | – | – | –
5 | CC(C)(C)/C=C/C(NC(=O)c1ccc(OCc2ccccc2)nc1)C(=O)O (centres unmarked) [SI39, (E)-2-[6-(benzyloxy)nicotinoylamino]-5,5-dimethyl-3-hexenoic acid] | 65 nM | reduced baseline sphere formation | – | – | – | –
6 | CC(C)(C)/C=C/C(NC(=O)c1ccc(Oc2ccccc2)nc1)C(=O)O (racemic) [SI5, (E)-5,5-dimethyl-2-(6-phenoxynicotinoylamino)-3-hexenoic acid] | 17 nM | reduced baseline sphere formation | reduced sphere formation | reduced | reduced metastasis formation | –
7 | CC(C)(C)/C=C/C(NC(=O)c1cc(Cl)c(Cl)s1)C(=O)O (centres unmarked) [SI62, (E)-2-(4,5-dichloro-2-thienylcarbonylamino)-5,5-dimethyl-3-hexenoic acid] | 61 nM | reduced baseline sphere formation | – | – | – | reduced
8 | CC(C)(C)/C=C/C(NC(=O)c1cc(Cl)c[nH]1)C(=O)O (centres unmarked) [SI8, (E)-2-(4-chloro-2-pyrrolylcarbonylamino)-5,5-dimethyl-3-hexenoic acid] | 43 nM | reduced baseline sphere formation | reduced sphere formation | – | – | –
9 | Cc1cccc(NC(=O)c2ccc(C(F)(F)F)cc2C(=O)O)n1 [RC3, 2-(N-6-Methyl-2-pyridylcarbamoyl)-5-(trifluoromethyl)benzoic acid, reference compound] | – | increased sphere formation | reduced sphere formation | – | induced lung metastasis | –
10 | CC(C)(C)/C=C/C(NC(=O)c1cccc(-n2cncn2)c1)C(=O)O (centres unmarked) [SI24, (E)-5,5-dimethyl-2-[m-(1H-1,2,4-triazol-1-yl)benzoylamino]-3-hexenoic acid] | 52 nM | – | – | – | – | –
